Source: patent US11066392B2, “Inhibitors of indoleamine 2,3-dioxygenase and methods of their use” (BRISTOL-MYERS SQUIBB COMPANY, priority 2017, dated 2021)
pIC50: −log10 of the molar value. Where two headings read alike, the source gives them in different places.

Biological target: indoleamine 2,3-dioxygenase (IDO) (Homo sapiens, UniProt P14902)
Test: HeLa cell-based indoleamine 2,3-dioxygenase (IDO) assay (kynurenine production, IFNγ-stimulated)
Conditions: HeLa cells
Experimental: Assessment of inhibitor activity in HeLa cell-based indoleamine 2,3-dioxygenase (IDO) assay. HeLa (ATCC® CCL-2) cells were obtained from the ATCC® and cultured in Dulbecco's Modified Eagle Medium supplemented with 4.5 g/L glucose, 4.5 […] sodium pyruvate (#10-013-CV, Corning), 2 mM L-alanyl-L-glutamine dipeptide (#35050-061, Gibco), 100U/mL penicillin, 100 μg/mL streptomycin (#SV30010, HyClone) and 10% fetal bovine serum (#SH30071.03 HyClone). Cells were maintained in a humidified incubator at 37° C. in 5% CO2. […] After 24 hours, the media was aspirated and replaced with media containing IFNγ (#285-IF/CF, R&D Systems) at a final concentration of 25 ng/mL. A serial dilution of each test compound was added to the cells in a total volume of 200 μL of culture medium. After a further 48 hour incubation, 170 μL of supernatant was transferred from each well to a fresh 96-well plate. 12.1 μL of 6.1N trichloroacetic acid (#T0699, Sigma-Aldrich) was added to each well and mixed, followed by incubation at 65° C. for 20 minutes to hydrolyze N-formylkynurenine, the product of indoleamine 2,3-dioxygenase, to kynurenine. The reaction mixture was then centrifuged for 10 mins at 500×g to sediment the precipitate. 100 μL of the supernatant was transferred from each well to a fresh 96-well plate. 100 μl of 2% (w/v) p-dimethylaminobenzaldehyde (#15647-7, Sigma-Aldrich) in acetic acid (#A6283, Sigma-Aldrich) was added to each well mixed and incubated at room temperature for 20 mins. Kynurenine concentrations were determined by measuring absorbance at 480 nm and calibrating against an L-kynurenine (#K8625, Sigma-Aldrich) standard curve using a SPECTRAMAX® M2e microplate reader (Molecular Devices). The percentage activity at each inhibitor concentration was determined and IC50 values assessed using nonlinear regression. Activity for compounds described herein is provided in Table 1, wherein potency levels are provided as follows: (Potency: IDO IC50: […])

[1] = IFNγ 25 ng/mL, 48 hour incubation, read-out: IDO Hela IC50
[2] = potency class, read-out: Patent Potency Hela IC50 A < 10 nM, B > 10 nM, C > 100 nM

Sequence of indoleamine 2,3-dioxygenase (IDO) (P14902 whole entry): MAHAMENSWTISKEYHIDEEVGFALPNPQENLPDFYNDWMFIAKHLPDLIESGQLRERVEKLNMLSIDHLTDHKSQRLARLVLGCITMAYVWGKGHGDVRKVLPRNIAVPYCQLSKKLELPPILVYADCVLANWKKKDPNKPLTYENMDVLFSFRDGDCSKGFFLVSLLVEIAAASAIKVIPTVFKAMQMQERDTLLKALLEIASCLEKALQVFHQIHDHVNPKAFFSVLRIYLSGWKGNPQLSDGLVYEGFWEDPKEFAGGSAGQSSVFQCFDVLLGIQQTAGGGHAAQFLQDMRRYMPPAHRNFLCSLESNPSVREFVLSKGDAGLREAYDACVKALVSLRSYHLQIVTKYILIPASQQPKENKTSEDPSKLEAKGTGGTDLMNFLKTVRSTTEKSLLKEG

Compound	pIC50 [1]	pIC50 [2]
CCC(NC(=O)c1ccc(OC)nc1)C1CCC(c2cccc(OC(F)F)n2)CC1 (single isomer, unassigned) [Example 48c, N-(1-(4-(6-(difluoromethoxy)pyridin-2-yl)cyclohexyl)propyl)-6-methoxynicotinamide]	6.57	
CC[C@H](NC(=O)c1cnc(C)nc1)[C@H]1CC[C@H](c2ccnc3c(F)cccc32)CC1 (single isomer, unassigned) [Example 61d, N-(1-(4-(8-fluoroquinolin-4-yl)cyclohexyl)propyl)-2-methylpyrimidine-5-carboxamide]	7.70	
CC[C@@H](NC(=O)c1ccc(OC)nc1)[C@H]1CC[C@@H](c2cnc3ccccc3c2)CC1 (single isomer, unassigned) [Example 20c, 6-Methoxy-N-(1-(4-(quinolin-3-yl)cyclohexyl)propyl)nicotinamide]	6.62	
CC[C@@H](NC(=O)c1ccc(OC)nc1)[C@H]1CC[C@@H](c2ccnc3ncccc32)CC1 (single isomer, unassigned) [Example 53b, N-(1-(4-(1,8-naphthyridin-4-yl)cyclohexyl)propyl)-6-methoxynicotinamide]	6.17	
CCOC[C@@H](NC(=O)c1ccc(OC)nc1)[C@H]1CC[C@@H](c2ccnc3ccc(C(F)(F)F)cc32)CC1 (single isomer, unassigned) [Example 13d, N-(2-Ethoxy-1-(4-(6-(trifluoromethyl)quinolin-4-yl)cyclohexyl)ethyl)-6-methoxynicotinamide]	6.03	
CCC(NC(=O)c1ccc(OC)nc1)C1CCC(c2ccnc(OC)c2F)CC1 (stereo not drawn) [Example 22, N-(1-(4-(3-Fluoro-2-methoxypyridin-4-yl)cyclohexyl)propyl)-6-methoxynicotinamide]		< 7.00
CC[C@@H](NC(=O)c1ccc(OC)nc1)[C@H]1CC[C@@H](c2ccn(C)c(=O)c2)CC1 (single isomer, unassigned) [Example 31a, 6-Methoxy-N-(1-(4-(1-methyl-2-oxo-1,2-dihydropyridin-4-yl)cyclohexyl)propyl)nicotinamide]		< 7.00
[2H]C([2H])([2H])Oc1ccc(C(=O)NC(CC)C2CCC(c3ccnc(OC)c3C(F)F)CC2)cn1 (single isomer, unassigned) [Example 66-1, N-(1-((1s,4s)-4-(3-(difluoromethyl)-2-methoxypyridin-4-yl)cyclohexyl)propyl)-6-(methoxy-d3)nicotinamide]		< 7.00
CC[C@@H](NC(=O)c1ccc(OC)nc1)[C@H]1CC[C@@H](c2ccn(C)c(=O)c2)CC1 (single isomer, unassigned) [Example 31c, 6-Methoxy-N-(1-(4-(1-methyl-2-oxo-1,2-dihydropyridin-4-yl)cyclohexyl)propyl)nicotinamide]	6.72	
COC[C@H](NC(=O)c1ccc(OC)nc1)[C@H]1CC[C@@H](c2ccnc(OC)c2C(F)F)CC1 (single isomer, unassigned) [Example 51a, N-(1-(4-(3-(difluoromethyl)-2-methoxypyridin-4-yl)cyclohexyl)-2-methoxyethyl)-6-methoxynicotinamide]		> 8.00
COc1ccc(C(=O)N[C@H](CC2(C)COC2)[C@H]2CC[C@@H](c3ccnc4ccc(C(F)(F)F)cc43)CC2)cn1 (single isomer, unassigned) [Example 17b, 6-Methoxy-N-(2-(3-methyloxetan-3-yl)-1-(4-(6-(trifluoromethyl)quinolin-4-yl)cyclohexyl)ethyl)nicotinamide]	6.46	
COC[C@H](NC(=O)c1ccc(OC)nc1)[C@H]1CC[C@@H](c2ccnc(OC)c2C(F)F)CC1 (single isomer, unassigned) [Example 51b, N-(1-(4-(3-(difluoromethyl)-2-methoxypyridin-4-yl)cyclohexyl)-2-methoxyethyl)-6-methoxynicotinamide]	6.41	
